The record followed here is patent US20260062422A1 (Halda Therapeutics OpCo, Inc., priority 2022, published 2026).

In this experiment the test system is T-Rex 293 cell line SC3 cells having increased expression of androgen receptor protein due to exposure to doxycycline. Description: Cellular growth inhibition, T-Rex 293 SC3 cells with doxycycline (androgen receptor induced), CellTiter-Glo. The experiment is classed as cell-based. Conditions: T-Rex 293 SC3 cells with 10 ng/mL doxycycline (increased androgen receptor expression), 72 hours. An outline of the steps: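 GI50 came from a four-parameter fit of CellTiter-Glo 2.0 luminescence after 72 h compound exposure (0.5% DMSO, 37 °C), dosing 24 h post-seeding. SC3 clone cells (2500/well), transfected with wild-type androgen receptor, grew in charcoal-stripped serum medium lacking phenol red, induced with 10 ng/mL doxycycline or left uninduced.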
A general note: Cellular ATP, detected with luciferase, serves as a proxy for viable cell number.

`Cc1sc2c(c1C)C(c1ccc(CC3CC4(CCN(c5ccc(C(=O)N[C@H]6C(C)(C)[C@H](Oc7ccc(C#N)c(Cl)c7)C6(C)C)cn5)CC4)C3)cc1)=N[C@@H](Cc1ncco1)c1nnc(C)n1-2` [Compound I-143]: the concentration for 50% growth inhibition (GI50) (as a rule, the concentration that inhibits growth by half) was less than 500 nM.

As to `Cc1sc2c(c1C)C(c1ccc(N3CC(N4CCN(c5ncc(C(=O)N[C@H]6C(C)(C)[C@H](Oc7ccc(C#N)c(Cl)c7)C6(C)C)cn5)CC4)C3)cc1)=NC(Cc1ncco1)c1nnc(C)n1-2` (some centres unmarked) [Compound I-208], the GI50 was less than 500 nM.
